The values that follow come from patent publication US20090252703A1, “Use of alcohol co-solvents to improve pegylation reaction yields” (priority 2006, published 2009).

The nature of the data set: solubility of CGRP peptides in aqueous conjugation buffer. Particulars: aqueous conjugation buffers used for coupling vehicle to the peptide. It counts as physicochemical. From the text: Co-solvent mediated conjugation of vehicle to CGRP peptide antagonists.
On to `CC(=O)N[C@@H](Cc1c[nH]c2ccccc12)C(=O)N[C@H](C(=O)N[C@H](C(=O)N[C@@H](Cc1cnc[nH]1)C(=O)N[C@@H](CCCNC(N)=O)C(=O)N[C@@H](CC(C)C)C(=O)N[C@@H](C)C(=O)NCC(=O)N[C@@H](CC(C)C)C(=O)N[C@@H](CC(C)C)C(=O)N[C@@H](CO)C(=O)N[C@@H](CCCNC(N)=O)C(=O)N[C@@H](CO)C(=O)NCC(=O)NCC(=O)N[C@H](C(=O)N[C@H](C(=O)N[C@@H](CCCCNC(=N)N)C(=O)N[C@@H](CCCCN)C(=O)N[C@@H](CC(N)=O)C(=O)N[C@@H](Cc1ccccc1)C(=O)N[C@H](C(=O)N1CCC[C@H]1C(=O)N[C@H](C(=O)N[C@@H](CC(=O)O)C(=O)N[C@H](C(=O)NCC(=O)N1CCC[C@H]1C(=O)N[C@@H](Cc1ccccc1)C(=O)N[C@@H](C)C(=O)N[C@@H](Cc1ccccc1)C(N)=O)C(C)C)[C@@H](C)O)C(C)C)C(C)C)C(C)C)[C@@H](C)O)C(C)C` [SEQ ID NO:2], for which the “solubility in aqueous buffer medium (in words)” value (from here on “solubility”) is listed as “relatively insoluble”.

For `CC(=O)N[C@@H](Cc1c[nH]c2ccccc12)C(=O)N[C@H](C(=O)N[C@H](C(=O)N[C@@H](Cc1cnc[nH]1)C(=O)N[C@@H](CCCNC(N)=O)C(=O)N[C@@H](CC(C)C)C(=O)N[C@@H](C)C(=O)NCC(=O)N[C@@H](CC(C)C)C(=O)N[C@@H](CC(C)C)C(=O)N[C@@H](CO)C(=O)N[C@@H](CCCNC(N)=O)C(=O)N[C@@H](CO)C(=O)NCC(=O)NCC(=O)N[C@H](C(=O)N[C@H](C(=O)N[C@@H](CCCCNC(=N)N)C(=O)N[C@@H](CCCCN)C(=O)N[C@@H](CC(N)=O)C(=O)N[C@@H](Cc1ccccc1)C(=O)N[C@H](C(=O)N1CCC[C@H]1C(=O)N[C@H](C(=O)N[C@@H](CC(=O)O)C(=O)N[C@H](C(=O)NCC(=O)N1C2CCCCC2C[C@H]1C(=O)N[C@@H](Cc1ccccc1)C(=O)N[C@@H](C)C(=O)N[C@@H](Cc1ccccc1)C(N)=O)C(C)C)[C@@H](C)O)C(C)C)C(C)C)C(C)C)[C@@H](C)O)C(C)C` (stereo partly drawn) [SEQ ID NO:3], the “solubility” value is recorded as “relatively insoluble”.

On to `CC(=O)N[C@@H](Cc1c[nH]c2ccccc12)C(=O)N[C@H](C(=O)N[C@H](C(=O)N[C@@H](Cc1cnc[nH]1)C(=O)N[C@@H](CCCN=C(N)N)C(=O)N[C@@H](CC(C)C)C(=O)N[C@@H](C)C(=O)NCC(=O)N[C@@H](CC(C)C)C(=O)N[C@@H](CC(C)C)C(=O)N[C@@H](CO)C(=O)N[C@@H](CCCN=C(N)N)C(=O)N[C@@H](CO)C(=O)NCC(=O)NCC(=O)N[C@H](C(=O)N[C@H](C(=O)N[C@@H](CCCN=C(N)N)C(=O)N[C@@H](CCCCN)C(=O)N[C@@H](CC(N)=O)C(=O)N[C@@H](Cc1ccccc1)C(=O)N[C@H](C(=O)N1CCC[C@H]1C(=O)N[C@H](C(=O)N[C@@H](CC(=O)O)C(=O)N[C@H](C(=O)NCC(=O)N1CCC[C@H]1C(=O)N[C@@H](Cc1ccccc1)C(=O)N[C@@H](C)C(=O)N[C@@H](Cc1ccccc1)C(N)=O)C(C)C)[C@@H](C)O)C(C)C)C(C)C)C(C)C)[C@@H](C)O)C(C)C` [SEQ ID NO:7], for which the “solubility” value is listed as “relatively soluble”.
